Assay results as given in ChEMBL document CHEMBL3132831, “Hedgehog signalling pathway inhibitors as cancer suppressing agents” (Medchemcomm, 2014).
pEC50, pIC50: −log10 of the molar value. Each block holds one compound with its values, some of them ahead of it.

Assays:
[1] = Inhibition of SAG-induced hedgehog pathway in mouse SHH-LIGHT2 cells; type: cell-based
Sonic hedgehog protein [2] = biological target: T1, Sonic hedgehog protein (Mus musculus, UniProt Q62226); assay: Inhibition of SHh palmitoylation in mouse NIH3T3 cells; type: cell-based
Sonic hedgehog protein [3] = biological target: T1, Sonic hedgehog protein; assay: Inhibition of SHh in mouse NIH3T3 cells assessed as Gli activation; type: cell-based
Sonic hedgehog protein [4] = biological target: T1, Sonic hedgehog protein; assay: Inhibition of SHh in mouse LIGHT2 cells; type: cell-based
[5] = Inhibition of hedgehog pathway in mouse C3H10T1/2 cells assessed as alkaline phosphatase enzyme activity; type: cell-based; conditions: c3h 10t1/2
[6] = Cytotoxicity against human SK-N-BE(2) cells after 72 hrs by fluorometric microculture cytotoxicity assay; type: functional; conditions: SKNBE2, 72 h, pooled result: one value given for 7 cell lines, strains, targets or settings
[7] = Inhibition of SHH-mediated mouse C3H10T1/2 cell differentiation to osteoblasts; conditions: c3h 10t1/2
[8] = Decrease of cell density in human CCC cells at 50 nM up to 24 hrs; type: functional; design: scale not given: the % may be the effect or the level left
[9] = Antiproliferative activity against mouse medulloblastoma cells expressing wild type SMO; type: functional; conditions: Medulloblastoma cell
Protein smoothened = Protein smoothened (Homo sapiens, UniProt Q99835, D473H); assay: Inhibition of Smo D473H mutant (unknown origin) expressed in mouse C3H10T1/2 cells by luciferase assay; type: cell-based, C3H 10T1/2
Chain of Protein smoothened (Q99835 28-787 D473H limits assumed): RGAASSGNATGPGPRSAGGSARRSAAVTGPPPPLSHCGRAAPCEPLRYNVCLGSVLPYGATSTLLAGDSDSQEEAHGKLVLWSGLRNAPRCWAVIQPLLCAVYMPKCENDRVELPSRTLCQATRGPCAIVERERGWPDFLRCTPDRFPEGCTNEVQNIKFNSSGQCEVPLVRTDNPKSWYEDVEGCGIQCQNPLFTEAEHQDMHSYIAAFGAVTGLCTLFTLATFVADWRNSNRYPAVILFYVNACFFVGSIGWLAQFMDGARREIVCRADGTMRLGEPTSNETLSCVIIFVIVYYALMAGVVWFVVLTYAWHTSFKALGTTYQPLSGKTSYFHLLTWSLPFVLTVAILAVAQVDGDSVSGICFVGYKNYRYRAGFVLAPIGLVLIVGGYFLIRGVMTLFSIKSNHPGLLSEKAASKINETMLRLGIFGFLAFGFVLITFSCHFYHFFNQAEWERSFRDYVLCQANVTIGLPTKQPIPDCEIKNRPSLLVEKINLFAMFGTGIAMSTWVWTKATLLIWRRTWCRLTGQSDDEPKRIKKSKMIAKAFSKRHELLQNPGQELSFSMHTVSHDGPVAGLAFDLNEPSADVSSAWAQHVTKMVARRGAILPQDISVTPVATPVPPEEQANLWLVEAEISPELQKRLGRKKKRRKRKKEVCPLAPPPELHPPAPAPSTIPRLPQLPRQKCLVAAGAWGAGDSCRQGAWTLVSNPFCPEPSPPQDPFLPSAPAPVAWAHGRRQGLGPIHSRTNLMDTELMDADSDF

T1 sequence (Q62226 25-198 limits assumed): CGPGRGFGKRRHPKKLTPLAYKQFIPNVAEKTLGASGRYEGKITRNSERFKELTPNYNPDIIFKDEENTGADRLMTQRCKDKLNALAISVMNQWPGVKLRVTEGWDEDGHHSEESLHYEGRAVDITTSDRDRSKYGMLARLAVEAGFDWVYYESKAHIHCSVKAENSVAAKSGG

SMILES: COCCOC(=O)C1=C(C)NC2=C(C(=O)CC(c3ccccc3OC)C2)C1c1cccc(O)c1 (centres undefined)
- pIC50 [1]: > 5.00

SMILES: CCC(C)CNCC(=O)N1CCc2sccc2C1COc1cccc(C)c1 (centres undefined)
- pIC50 (Sonic hedgehog protein [2]): 5.00
- pIC50 (Sonic hedgehog protein [3]): 5.00

SMILES: N#C/C(C(=O)c1ccc(Cl)cc1Cl)=C1\NC(=O)c2ccccc2N1
- pIC50 [1]: > 5.00

SMILES: CN(C)c1ccccc1CN1CCCN(Cc2ccccc2N(C)C)C1c1ccncc1
- GI50 [6]: 5820 nM

SMILES: CC1=C2C[C@H]3[C@@H](CCC4=CC(=O)CC[C@@]43C)[C@@H]2CC[C@@]2(C1)O[C@@H]1C[C@H](C)CN[C@H]1[C@H]2C
- pEC50 [7]: 6.70

SMILES: C=C1CC[C@H](O)C/C1=C/C=C1\CCC[C@]2(C)[C@@H]([C@H](C)CCCC(C)C)CC[C@@H]12 [CHOLECALCIFEROL]
- Activity [8]: <=90%

SMILES: CCC(C)n1ncn(-c2ccc(N3CCN(c4ccc(OCC5COC(Cn6cncn6)(c6ccc(Cl)cc6Cl)O5)cc4)CC3)cc2)c1=O (centres undefined) [ITRACONAZOLE]
- pIC50 [9]: 7.26

SMILES: Cc1c(Cc2ccccc2)nnc(N2CCN(c3cnc(C(C)(C)O)cn3)[C@H](C)C2)c1C [LEQ506]
- pIC50 (Protein smoothened): > 7.00

Continued, values first:

- pIC50 [1]: > 5.00
SMILES: OCCNc1nc(N2CCN(c3ccccc3)CC2)nc2ccccc12

- pIC50 (Sonic hedgehog protein [4]): 8.30
SMILES: O=C(NN1CCN(c2nc(-c3cnc4ccccc4n3)no2)CC1)C1CCCCC1

- pIC50 (Sonic hedgehog protein [4]): 7.60
SMILES: O=C(NN1CCN(c2nc(-c3ccc4ccccc4n3)no2)CC1)C1CCC(F)(F)CC1

- pIC50 [5]: 7.64
SMILES: Clc1ccc(N2CCC(N3CCCC3)CC2)cc1-c1nc2ccccc2[nH]1

- pIC50 [1]: > 5.00
SMILES: COc1ccc(OC)c2c1cc1n2CC(C)(C(=O)NC2CCCCCCC2)N(CCN(C)C)C1=O (centres undefined)
